Laboratory results as given in publication PMC6447718, “PACAP-38 and PACAP(6–38) Degranulate Rat Meningeal Mast Cells via the Orphan MrgB3-Receptor” (Frontiers in Cellular Neuroscience, 2019).
“Also recorded” adds a separate entry of the source. Ends that are not written are not given here.

Assays:
[1] = test system: PAC1-receptor (Rattus Norvegicus Adcyap1r1 variant 5, null-splice variant); format: cell-based
Source text: (§1) DNA of the coding region of Rattus Norvegicus Adcyap1r1 variant 5 (NM_001270582.1) encoding the null-splice variant (short N-terminal and neither exon 14 or 15) of the PAC1-receptor (Vector: EX-Rn10199-M03) was ordered from GeneCopoeia. DNA encoding the RGD1560730 gene (XM_006229262.3, GenScript), was cloned into the pXOOM vector as previously described (Jespersen et al., [2002]). DNA was purified using Plasmid DNA Purification NucleoBond Xtra Midi-kit (Macherey-Nagel). […] Extracted plasmids were linearized down-stream the poly(A) segment using the XhoI restriction enzyme (New England Biolabs, Ipswich, MA, USA). RNA was in vitro transcribed by synthetization from the T7 RNA polymerase promoter using the mMessenger mMachine kit (Ambion) according to manufacturer’s protocol. Messenger RNA was purified using the MEGAclear kit (Ambion). Transcribed RNA integrity was assessed by agarose gel electrophoresis.
(§2) Stage V and VI defolliculated Xenopus laevis oocytes were purchased from EcoCyte Bioscience (Dortmund, Germany) and kept in Kulori medium (90 mM NaCl, 4 mM KCl, 1 mM MgCl2, 1 mM CaCl2, and 5 mM Hepes, pH 7.4). Oocytes were micro-injected with 50 nl mRNA solution containing 30 ng RNA per oocyte and incubated at 19°C. Currents were measured after 2–5 days using a conventional two-electrode-voltage clamp (TEVC). The oocytes were placed in a 200 μl chamber and continuously exposed to a flow of Kulori medium with or without ligands (1 ml/min) while impaled with both a current and a voltage electrode filled with 3 M KCl and connected to an Oocyte Clamp Amplifier [Warner Instruments Corp. (OC-725 B) and a PC-interface (Digidata1440A, Molecular Devices)]. Current amplitude in absence or presence of ligands were analyzed using pClamp 10.2 software (Molecular Devices). All experiments were performed with oocyte membrane voltages constantly clamped to −70 mV and the temperature was kept between 19 and 22°C. In activation experiments, non-responding as well as low-responding (<10 nA) oocytes were excluded from the dataset. Ligands PACAP-38, PACAP-27, PACAP(6–38) were custom synthetized by Caslo (Lyngby, Denmark) while maxadilan was purchased from Bachem (Bubendorf, Switzerland).
(§3) Concentration-response curves for both oocytes and dural mast cells were analyzed for overall effects of PACAP-38 and -27 by two-way analyses of variance (ANOVA) followed by Sidak’s test for multiple pairwise comparisons. Effects of PAC1-receptor ligands on mast cell degranulation or on receptor-expressing oocytes were analyzed with a one-way ANOVA followed by Tukey’s multiple comparisons test. The effect of PACAP-38 and PACAP(6–38) on MrgB3-expressing oocytes were analyzed by an unpaired two-tailed t-test. Differences between groups were considered significant when p < 0.05 and data are presented as mean with standard error of the mean (±SEM). GraphPad Prism 7 (GraphPad Prism Software, San Diego, CA, USA) was used for statistical analysis.

VPAC2 = conditions: cited from earlier work
Source text: (§4) Pituitary adenylate cyclase-activating peptide-38 (PACAP-38) is a 38-amino acid neuropeptide located in both sensory and parasympathetic perivascular nerve fibers (Moller et al., [1993]; Mulder et al., [1994]). A C-terminal truncated 27-amino acid (PACAP-27) version is endogenously present as well but is less abundant (Miyata et al., [1990]; Arimura et al., [1991]; Ogi et al., [1993]).

VPAC1 = conditions: cited from earlier work
Source text: as §4

[2] = test system: MrgB3-receptor (RGD1560730); assay: Two-electrode voltage clamp on MrgB3-receptor-expressing Xenopus laevis oocytes; format: cell-based, rat; conditions: 1–10 μM, holding potential −70 mV
Source text: as §1, §2, §3

[3] = test system: rat peritoneal mast cells; conditions: rat peritoneal mast cells; ref Baun et al., 2012; cited from earlier work
Source text: Inspired by clinical findings, we have previously characterized the degranulating effect of various PACAP-analogues on isolated rat peritoneal mast cells. Based on the expectation that degranulation is mediated through the PAC1-receptor, we found an unpredicted order of potency (Baun et al., [2012]).

rat meningeal mast cells = assay: Mast cell degranulation in hemi-skull preparations (dura mater, toluidine blue staining, microscopic count); format: cell-based, rat (male Sprague-Dawley)
Protocol: Mast cell degranulation was performed as previously described (Pedersen et al., [2015]). In brief, skulls were cut mid-sagittal and the brain halves were removed, leaving the dura mater undisturbed. This was followed by immediate addition of either 350 μl 0.1, 1 or 10 μM PACAP-38 (custom synthesis by Caslo Laboratory ApS, Lyngby, Denmark) or vehicle (saline) in phosphate buffered saline (PBS). After 30 s incubation, the reactions were terminated, and the skulls were fixated in 4% paraformaldehyde in phosphate buffered saline (PBS; Glostrup Hospital Pharmacy, Denmark). The dura mater was dissected from the skull, whole mounted on slides, and mast cells were visualized by staining with 0.1% acidified toluidine blue (Sigma Aldrich, Germany). Tissues were dehydrated in graded alcohols prior to cover slip mounting. The level of mast cell degranulation was evaluated by 400× magnification (Nikon Eclipse Ni microscope) by a researcher blinded to the treatment and was counted in 10 consecutive fields along the stem part of the middle meningeal artery. Mast cells were considered degranulated if an extensive dispersion of more than 10 extruded granules were localized outside the cell or if an extensive loss of staining gave the cell a “ghostly” look.
as §3

[4] = test system: PAC1-receptor (Rattus Norvegicus Adcyap1r1 variant 5, null-splice variant); assay: Antagonism of PACAP-38-induced currents in PAC1-receptor-expressing oocytes (TEVC); format: cell-based
Source text: as §1, with “RNA was in vitro transcribed by synthetization from the T7 RNA polymerase promoter using the mMessenger mMachine kit (Ambion) according to manufacturer’s protocol. Messenger RNA was purified using the MEGAclear kit (Ambion).” left out
Stage V and VI defolliculated Xenopus laevis oocytes were purchased from EcoCyte Bioscience (Dortmund, Germany) and kept in Kulori medium (90 mM NaCl, 4 mM KCl, 1 mM MgCl2, 1 mM CaCl2, and 5 mM Hepes, pH 7.4). […] Currents were measured after 2–5 days using a conventional two-electrode-voltage clamp (TEVC). […] Current amplitude in absence or presence of ligands were analyzed using pClamp 10.2 software (Molecular Devices). […]
Concentration-response curves for both oocytes and dural mast cells were analyzed for overall effects of PACAP-38 and -27 by two-way analyses of variance (ANOVA) followed by Sidak’s test for multiple pairwise comparisons. […]

VPAC1-receptor = test system: VPAC1-receptor; parameters: method as in Harmar et al., 2012; conditions: PACAP-38, PACAP-27 and VIP compared; ref Harmar et al., 2012; cited from earlier work
PAC1-receptor = conditions: relative to PACAP; ref Miyata et al., 1989, 1990; Harmar et al., 1998; cited from earlier work
Source text: Pituitary adenylate cyclase-activating peptide-38 (PACAP-38) is a 38-amino acid neuropeptide located in both sensory and parasympathetic perivascular nerve fibers (Moller et al., [1993]; Mulder et al., [1994]). A C-terminal truncated 27-amino acid (PACAP-27) version is endogenously present as well but is less abundant (Miyata et al., [1990]; Arimura et al., [1991]; Ogi et al., [1993]). […] At present, three PACAP-receptors have been identified: PA ... || Several different splice variants of the PAC1-receptor have been identified in rats. Splice sites in the extracellular N-terminal domain and the third intracellular loop account for fine tuning of ligand affinity and signal transduction through adenylate cyclase or PLC activation (Deutsch and Sun, [1992]; Spengler et al., [1993]).

migraine patients = conditions: migraineurs; ref Rahmann et al., 2008; cited from earlier work
Source text: as §4, with “[1993]). […] Degranulation of mast cells can be induced either by an allergen-IgE-dependent mechanism or via an IgE-independent mechanism. The latter mechanism can be activated by a group of molecules known as basic secretagogues.” for “[1993]).”

[5] = test system: calcitonin gene-related peptide (CGRP) release from the trigeminal nucleus caudalis; conditions: ref Jansen-Olesen et al., 2014; cited from earlier work
Source text: Future studies will have to rule out if MrgB3-receptors are involved in PACAP- ...

VPAC2-receptor = test system: VPAC2-receptor; parameters: method as in Harmar et al., 2012; conditions: PACAP-38, PACAP-27 and VIP compared; ref Harmar et al., 2012; cited from earlier work
MrgB3-receptor = conditions: ref Tatemoto et al., 2006; cited from earlier work
Source text: The exact mechanism of basic secretagogue-mediated mast cell degranulation remains unclear. […] However, this would require the ability of peptides, despite their positive charge, to diffuse across the membrane in order to reach intracellular G-proteins, and as this has not been shown, the hypothesis seems unlikely (Tat ...

[6] = ref Spengler et al., 1993, Pantaloni et al., 1996

Substance | current ([1]; 0.1 μM alone, 1 min perfusion, −70 mV, Figure 6B, n = 9, mean ± SEM) | activation of PAC1-receptor / relative potency (result in words) ([1]; 0.01 to 1 μM, holding potential −70 mV) | affinity to VPAC2-receptor (result in words) (VPAC2; ref Harmar et al., 2012) | affinity to VPAC1-receptor (result in words) (VPAC1; ref Harmar et al., 2012) | activation of MrgB3-receptor (result in words) [2] | peritoneal mast cell degranulation (result in words) [3] | mast cell degranulation (rat meningeal mast cells; 10 μM, Figure 6A, PACAP(6–38) n = 7 (p < 0.0001), PACAP-38 n = 5, mean ± SEM) | mast cell degranulation (result in words) (rat meningeal mast cells; 0.1 to 10 μM, 30 s, rat meningeal mast cells) | inhibition of PACAP-38 induced responses (result in words) ([4]; PACAP(6–38) 0.1 μM together with PACAP-38, one-way ANOVA, Tukey's test) | PACAP-38-induced current in presence of antagonist ([4]; PACAP(6–38) administered together with PACAP-38 in 0.1 μM, −70 mV, n = 10, mean ± SEM, PACAP-38 alone −0.18 ± 0.5 μA) | affinity to VPAC2 relative to PACAP (result in words) (VPAC2; [6]) | affinity to VPAC1 relative to PACAP (result in words) (VPAC1; [6]) | profile on VPAC1-receptor (result in words) (VPAC1-receptor) | binding to the PAC1-receptor, times lower than PACAP (PAC1-receptor) | migraine attacks / headache after infusion (result in words) (migraine patients) | release of CGRP from the trigeminal nucleus caudalis (result in words) [5] | profile on VPAC2-receptor (result in words) (VPAC2-receptor) | affinity to MrgB3-receptor (result in words) (MrgB3-receptor)
Pituitary Adenylate Cyclase Activating Peptide(6–38) (FTDSYSRYRKQMAVKKYLAAVLGKRYKQRVKNK; ends and bridges not checked; UniProt P18509 137-169, looked up, fragment) [PACAP(6–38), PAC1-receptor antagonist, custom synthetized by Caslo] | −5 ± 6 nA | unable to induce currents | has not been shown to have an affinity | has not been shown to have an affinity | agonistic effect on MrgB3-receptors expressed in oocytes; also recorded: equipotent to PACAP-38; also recorded: induce a significant current in MrgB3-receptor-expressing oocytes | pronounced mast cell degranulation; also recorded: as potent as PACAP-38 | 93 ± 2% | as potent as PACAP-38; also recorded: potent degranulator of rat meningeal mast cells | significantly antagonized; also recorded: significant inhibition of PACAP-38 induced responses | −0.05 ± 0.02 μA |  |  |  |  |  |  |  | 
vasoactive intestinal peptide [VIP] |  |  |  |  |  | not PACAP-27 and VIP, caused degranulation; also recorded: weak degranulating effect |  |  |  |  | equals that of PACAP | equals that of PACAP | equipotent | 1,000 times | only induces a mild headache and no migraine-like attacks in migraineurs; also recorded: does not provoke migraine headache | neither VIP, PACAP-27 nor maxadilan, mediated the release | equipotent | 
[D-Trp^7,9,10]-substance P |  |  |  |  |  |  |  |  |  |  |  |  |  |  |  |  |  | affinity
